The numbers were not newly measured in patent US8304000B2, “Process for preparing water extract of cinnamon” (Beijing Tang-An Nutrition & Healthcare Products Co. Ltd., priority 2010, dated 2012), which cites them from elsewhere.

Structures are written as SMILES.

As to `O=c1ccc2ccccc2o1` [Coumarin, 1-benzopyran-2-one], under “alcohol”, the solubility in alcohol entry was “readily soluble”. The solubility in water entry (water) is on record as “poorly soluble”.
